In ChEMBL document CHEMBL1201862, “PubChem BioAssay data set” (2004):
Activity calls are given as the source filed them.

Columns and labels:
[1] = target: Cytochrome P450 2C9 (Homo sapiens, UniProt P11712)
[2] = target: Cytochrome P450 2C19 (Homo sapiens, UniProt P33261); experiment: Cytochrome panel assay with activity outcomes. Panel member name: p450-cyp2c19 Compounds with AC50 equal or less than 10 uM are considered active; type: functional
[3] = viability of uninfected HEp-2 cells – cell-based, HTS, cytotoxicity control for RSV inhibitor project, dose response (AID 2410); type: functional; details: human respiratory syncytial virus
[4] = target: T1, Protein RecA (Mycobacterium tuberculosis, UniProt P9WHJ3); experiment: Fluorescence Cell-Free Homogeneous Dose Retest to Identify Inhibitors of RecA-Intein Splicing Activity. [Related pubchem assays (depositor defined):AID2097, AID2223, AID489010, AID492950]; type: functional
T1 sequence (P9WHJ3 whole entry): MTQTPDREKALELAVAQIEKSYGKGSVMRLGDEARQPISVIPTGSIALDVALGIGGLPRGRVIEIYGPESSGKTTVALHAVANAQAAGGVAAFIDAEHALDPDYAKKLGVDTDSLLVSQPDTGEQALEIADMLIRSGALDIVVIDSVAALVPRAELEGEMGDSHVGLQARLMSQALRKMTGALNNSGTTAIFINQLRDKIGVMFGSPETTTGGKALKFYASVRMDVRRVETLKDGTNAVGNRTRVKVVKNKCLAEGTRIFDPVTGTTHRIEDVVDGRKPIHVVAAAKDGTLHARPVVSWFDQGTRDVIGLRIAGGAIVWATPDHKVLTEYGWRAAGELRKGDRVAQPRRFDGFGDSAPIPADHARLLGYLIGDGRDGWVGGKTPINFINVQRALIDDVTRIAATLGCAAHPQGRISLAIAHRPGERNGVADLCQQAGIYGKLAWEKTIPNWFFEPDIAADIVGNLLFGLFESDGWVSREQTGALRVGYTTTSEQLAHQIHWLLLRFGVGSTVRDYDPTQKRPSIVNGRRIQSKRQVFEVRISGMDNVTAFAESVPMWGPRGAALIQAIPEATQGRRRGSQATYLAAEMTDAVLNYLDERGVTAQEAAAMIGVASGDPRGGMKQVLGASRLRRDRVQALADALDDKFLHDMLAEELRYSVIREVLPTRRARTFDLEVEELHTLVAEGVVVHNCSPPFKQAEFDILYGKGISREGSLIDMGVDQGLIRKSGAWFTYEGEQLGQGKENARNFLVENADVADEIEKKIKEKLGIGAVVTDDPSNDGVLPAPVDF

[5] = target: T2, Replicative DNA helicase DnaB (Mycobacterium tuberculosis, UniProt P9WMR3); experiment: DnaB intein splicing inhibitors, dose response, biochemical, cell-free fluorescence (AID 449749); type: functional
T2 sequence (P9WMR3 whole entry): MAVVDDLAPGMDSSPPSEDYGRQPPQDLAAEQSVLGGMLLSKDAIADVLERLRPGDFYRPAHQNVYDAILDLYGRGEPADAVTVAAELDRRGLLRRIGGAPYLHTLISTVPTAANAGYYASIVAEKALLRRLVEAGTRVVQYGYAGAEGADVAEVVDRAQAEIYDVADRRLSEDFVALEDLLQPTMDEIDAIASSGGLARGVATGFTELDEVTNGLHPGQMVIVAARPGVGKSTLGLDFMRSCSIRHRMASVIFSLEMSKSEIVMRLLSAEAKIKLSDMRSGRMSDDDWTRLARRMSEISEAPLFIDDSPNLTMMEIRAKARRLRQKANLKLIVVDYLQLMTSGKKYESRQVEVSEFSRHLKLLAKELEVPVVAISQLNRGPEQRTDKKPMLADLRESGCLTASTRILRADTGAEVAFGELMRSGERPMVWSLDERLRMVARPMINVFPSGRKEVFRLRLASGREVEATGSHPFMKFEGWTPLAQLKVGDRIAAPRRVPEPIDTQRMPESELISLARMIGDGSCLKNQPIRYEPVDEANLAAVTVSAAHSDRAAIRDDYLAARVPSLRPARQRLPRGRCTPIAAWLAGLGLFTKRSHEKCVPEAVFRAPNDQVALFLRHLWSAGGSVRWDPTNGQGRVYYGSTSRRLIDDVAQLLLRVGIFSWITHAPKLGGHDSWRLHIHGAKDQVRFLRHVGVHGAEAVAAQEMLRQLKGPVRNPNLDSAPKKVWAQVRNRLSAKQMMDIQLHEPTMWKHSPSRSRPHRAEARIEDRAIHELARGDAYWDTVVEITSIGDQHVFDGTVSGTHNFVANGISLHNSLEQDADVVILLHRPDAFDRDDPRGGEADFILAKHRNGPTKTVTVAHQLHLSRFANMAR

[6] = NIH3T3 cell viability loss – ATP luminescence, mouse fibroblasts, counter-screen, dose response (AID 2010); type: functional, cell-based;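 further: cells exposed to compound for about 90 hours before reading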
[7] = Trypanosoma cruzi growth suppression in host cells – NIH3T3 host cells, beta-gal luminescence, confirmation (AID 2044); type: functional, cell-based;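 further: intracellular parasites grown in NIH/3T3 mouse fibroblasts as host cells; luminescent beta-galactosidase reporter signal from transgenic T. cruzi replicating inside host cells; inhibitors lower the luminescence signal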
[8] = target: T3, Corticotropin-releasing factor receptor 2/Corticotropin-releasing factor-binding protein (Homo sapiens, UniProt P24387+Q13324); experiment: Dose Response confirmation of uHTS hits for small molecule antagonists of the CRF-binding protein and CRF-R2 receptor complex.; type: functional; details: read-out: IC50_Mean
T3 sequence (Q13324 whole entry): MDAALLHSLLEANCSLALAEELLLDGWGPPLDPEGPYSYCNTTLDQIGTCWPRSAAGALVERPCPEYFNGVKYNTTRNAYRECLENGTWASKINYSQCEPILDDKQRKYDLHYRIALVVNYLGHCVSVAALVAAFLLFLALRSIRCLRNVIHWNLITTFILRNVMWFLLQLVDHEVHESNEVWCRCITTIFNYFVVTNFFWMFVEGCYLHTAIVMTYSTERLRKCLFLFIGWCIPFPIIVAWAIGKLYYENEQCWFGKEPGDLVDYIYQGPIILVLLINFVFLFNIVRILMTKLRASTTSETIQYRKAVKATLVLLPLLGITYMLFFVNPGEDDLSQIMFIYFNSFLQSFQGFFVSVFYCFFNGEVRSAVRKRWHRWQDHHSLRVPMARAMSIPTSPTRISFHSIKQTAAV
T3 sequence (P24387 whole entry): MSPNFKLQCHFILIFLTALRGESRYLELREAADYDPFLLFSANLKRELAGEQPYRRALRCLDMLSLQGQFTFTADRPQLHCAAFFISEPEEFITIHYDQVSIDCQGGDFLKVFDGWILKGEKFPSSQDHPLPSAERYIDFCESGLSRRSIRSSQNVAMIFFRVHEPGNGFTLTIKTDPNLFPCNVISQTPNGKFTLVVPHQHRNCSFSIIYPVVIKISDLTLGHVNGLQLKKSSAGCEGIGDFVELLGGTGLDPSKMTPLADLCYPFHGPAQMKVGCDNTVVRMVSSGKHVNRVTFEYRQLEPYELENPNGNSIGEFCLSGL

[9] = target: T3, Corticotropin-releasing factor receptor 2/Corticotropin-releasing factor-binding protein; experiment: activators of CRF receptor 2 with binding protein – uHTS hits, confirmation (AID 602473); type: functional; details: read-out: EC50_Mean
[10] = target: Cytochrome P450 2D6 (Homo sapiens, UniProt P10635);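 further: CYP2D6 member of a cytochrome P450 panel assay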
Chain of Cytochrome P450 2D6 (P10635 whole entry): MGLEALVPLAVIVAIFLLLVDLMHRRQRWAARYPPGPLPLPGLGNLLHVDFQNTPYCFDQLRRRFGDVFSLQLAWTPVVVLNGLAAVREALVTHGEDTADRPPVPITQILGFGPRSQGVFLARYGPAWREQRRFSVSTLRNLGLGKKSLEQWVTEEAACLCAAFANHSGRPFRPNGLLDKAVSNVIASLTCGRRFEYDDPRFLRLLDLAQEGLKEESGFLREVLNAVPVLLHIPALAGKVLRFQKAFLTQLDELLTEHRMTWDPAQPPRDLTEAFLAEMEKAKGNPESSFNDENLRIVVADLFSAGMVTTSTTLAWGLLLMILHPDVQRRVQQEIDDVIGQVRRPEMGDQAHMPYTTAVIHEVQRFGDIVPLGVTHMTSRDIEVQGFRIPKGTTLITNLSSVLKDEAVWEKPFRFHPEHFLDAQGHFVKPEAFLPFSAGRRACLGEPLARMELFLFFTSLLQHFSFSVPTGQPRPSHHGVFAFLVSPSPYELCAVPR

Chain of Cytochrome P450 2C9 (P11712 whole entry): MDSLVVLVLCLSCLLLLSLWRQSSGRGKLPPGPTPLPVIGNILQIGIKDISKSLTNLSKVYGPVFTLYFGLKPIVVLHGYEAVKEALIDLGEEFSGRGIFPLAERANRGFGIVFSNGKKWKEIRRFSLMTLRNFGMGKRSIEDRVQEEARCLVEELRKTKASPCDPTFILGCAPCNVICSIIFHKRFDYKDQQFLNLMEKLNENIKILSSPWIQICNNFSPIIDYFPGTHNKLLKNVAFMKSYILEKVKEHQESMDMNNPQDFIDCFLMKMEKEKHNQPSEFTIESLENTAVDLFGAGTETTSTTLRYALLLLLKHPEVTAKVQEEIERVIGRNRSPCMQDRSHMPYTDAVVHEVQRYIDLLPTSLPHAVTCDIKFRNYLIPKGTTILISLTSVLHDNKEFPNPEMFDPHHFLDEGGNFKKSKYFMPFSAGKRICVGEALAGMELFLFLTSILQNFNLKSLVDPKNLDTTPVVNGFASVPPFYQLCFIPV
Chain of Cytochrome P450 2C19 (P33261 whole entry): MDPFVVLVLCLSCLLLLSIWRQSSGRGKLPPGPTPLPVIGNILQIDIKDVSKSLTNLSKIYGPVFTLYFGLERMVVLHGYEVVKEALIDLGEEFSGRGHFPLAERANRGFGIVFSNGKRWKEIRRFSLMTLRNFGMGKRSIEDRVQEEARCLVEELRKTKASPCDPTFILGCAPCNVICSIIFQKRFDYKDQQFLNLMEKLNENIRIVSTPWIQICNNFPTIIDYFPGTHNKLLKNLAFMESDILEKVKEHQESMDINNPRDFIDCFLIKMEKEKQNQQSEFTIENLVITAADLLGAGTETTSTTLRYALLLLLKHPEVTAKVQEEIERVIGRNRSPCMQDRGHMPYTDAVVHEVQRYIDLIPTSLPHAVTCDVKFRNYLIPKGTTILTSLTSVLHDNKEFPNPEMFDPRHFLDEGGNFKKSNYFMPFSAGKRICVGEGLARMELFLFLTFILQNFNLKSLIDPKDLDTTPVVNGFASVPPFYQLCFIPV

Structure (SMILES): COc1cccc(C(=O)NCCN2CCOCC2)c1
- AC50 [1]: 3.55 µM (inconclusive)
- AC50 ([2]; read-out: AC50): 20 µM (inconclusive)

Structure (SMILES): CN(C)c1ccc(-c2nc(NCCc3cnc[nH]3)c3ccccc3n2)cc1
- AC50 [1]: 0.794 µM (inconclusive)

Structure (SMILES): CC(C)C(NS(=O)(=O)c1cccs1)C(=O)Nc1nc(C(C)(C)C)cs1 (stereo not drawn)
- CC50 [3]: 13.5 µM (active)

Structure (SMILES): O=C1C(Cl)=C(N2CCCCC2)C(=O)N1c1ccccc1Cl
- EC50 [4]: 2.45 µM (active)
- AC50 [5]: 4.64 µM (active)

Structure (SMILES): O=P(O)(COc1ccccc1)COc1ccccc1
- AC50 [1]: 14.1 µM (inconclusive)
- AC50 ([2]; read-out: AC50): 28.2 µM (inconclusive)

Structure (SMILES): CC1=C(C)CC2(SC1)C(=O)N(c1ccccc1)N=C2N (stereo not drawn)
- EC50 [4]: 3.4 µM (active)
- AC50 [5]: 10.3 µM (active)

Structure (SMILES): CN1CCN(c2ccc([N+](=O)[O-])cc2C(=O)N2CCOCC2)CC1
- AC50 [2]: inconclusive

Structure (SMILES): Cc1n[nH]c2c1C1(CCOCC1)C(C#N)=C(N)O2
- EC50 [4]: 2.83 µM (active)
- AC50 [5]: 3.57 µM (active)

Structure (SMILES): C[N@+]1(CCC(=O)c2ccccc2)CC[C@H]2CC[C@H](C2)C1
- AC50 [2]: inconclusive

Structure (SMILES): O=[N+]([O-])c1cc(-c2nnc(C34CC5CC(CC(C5)C3)C4)o2)cc([N+](=O)[O-])c1
- EC50 [6]: > 60 µM (not active)
- EC50 [7]: 0.77 µM (active)
- CC50 [3]: > 50 µM (active)

Structure (SMILES): C=CCc1cccc(CNc2nc3ccccc3n2C)c1O
- CC50 [3]: 25.9 µM (active)

Structure (SMILES): NC(=O)[C@H]1CC2(CC(c3cccc(NC(=O)c4ccccc4)c3)=NO2)CN1C(=O)[C@H]1CCC(=O)N1 (stereo partly drawn)
- AC50 [2]: inconclusive

Structure (SMILES): Cc1cccc(CNc2ncnc3ccc(-c4ccccc4C#N)cc23)c1
- AC50 [1]: 0.501 µM (inconclusive)

Structure (SMILES): CCOP(=O)(OCC)c1cc(CC)ccc1O
- IC50 [8]: > 47.1 µM (inactive)
- EC50 [9]: > 53 µM (inactive)

Structure (SMILES): Cc1ccc(Nc2c(O)ncnc2O)cc1
- IC50 [8]: > 47.1 µM (inactive)
- EC50 [9]: > 53 µM (inactive)

Structure (SMILES): O=C(Cc1cc(O)n[nH]1)N/N=C/c1cccc2ccccc12
- EC50 [4]: 0.694 µM (active)
- AC50 [5]: 4.55 µM (active)

Structure (SMILES): COc1ccc(-c2cc(C)no2)cc1S(=O)(=O)N1CCN(C(=O)c2ccco2)CC1
- IC50 [8]: > 47.1 µM (inactive)
- EC50 [9]: > 53 µM (inactive)

Structure (SMILES): COCCNc1nc(-c2ccccc2Cl)nc2ccccc12
- AC50 ([2]; read-out: AC50): 0.0316 µM (inconclusive)

Structure (SMILES): CC(C)(C)c1ccccc1OCCN1CCCC1
- EC50 [6]: > 60 µM (not active)
- AC50 ([2]; read-out: AC50): 35.5 µM (inconclusive)
- EC50 [7]: 1.35 µM (active)

Structure (SMILES): CC(C)(C)C(=O)Nc1ccc(C(=O)OC2CCCCC2)cc1
- CC50 [3]: 37.3 µM (active)

Structure (SMILES): Cc1ccccc1-c1nc(CN(C)C(C)c2ccon2)c(C)o1 (stereo not drawn)
- EC50 [4]: 1.15 µM (active)
- AC50 [5]: 3.11 µM (active)

Structure (SMILES): Cc1cc(C)n(-c2ccc(Cl)c(C(=O)O)n2)n1
- AC50 [1]: 4.47 µM (inconclusive)
- AC50 ([2]; read-out: AC50): 6.31 µM (inconclusive)

Structure (SMILES): C#CCOc1ccc2c3c(c(=O)oc2c1)CCCC3
- CC50 [3]: 43.7 µM (active)

Structure (SMILES): O=C1Nc2ccccc2/C1=N/NS(=O)(=O)c1ccc(C(=O)O)cc1
- AC50 [2]: inconclusive

Structure (SMILES): O=C(CNS(=O)(=O)c1cccs1)NCCc1ccc(Cl)cc1
- IC50 [8]: > 47.1 µM (inactive)
- EC50 [9]: > 53 µM (inactive)

Structure (SMILES): COc1ccc(C(=O)N2CCCCC2)cc1S(=O)(=O)Nc1ccccc1
- AC50 [1]: 14.1 µM (inconclusive)

Structure (SMILES): Cc1nc(N2CCOCC2)c(C#N)c(C)c1Br
- CC50 [3]: 30.6 µM (active)

Structure (SMILES): COc1ccc(-c2cc(C(F)(F)F)nc(N3CCCCCC3)n2)cc1
- CC50 [3]: 28.2 µM (active)

Structure (SMILES): COc1ccccc1OCC(=O)NCC1CCCN(C(=O)c2ccccc2C(C)=O)C1 (stereo not drawn)
- IC50 [8]: > 47.1 µM (inactive)
- EC50 [9]: > 53 µM (inactive)

Structure (SMILES): CC(=O)c1ccccc1OCCCOc1cccc2cccnc12
- CC50 [3]: 21.4 µM (active)

Structure (SMILES): O=C(CCn1c(=O)[nH]c2ccsc2c1=O)Nc1ccc(F)c(F)c1
- AC50 [1]: 2.82 µM (inconclusive)

Structure (SMILES): COC1=C(C)C(=O)c2c(c(COC(N)=O)c3n2C[C@@H]2[C@@H]3N2C)C1=O (stereo partly drawn)
- AC50 ([2]; read-out: AC50): 0.794 µM (inconclusive)

Structure (SMILES): Cc1cc(N)n2ncc(-c3cccc(Br)c3)c2n1
- CC50 [3]: > 50 µM (active)

Structure (SMILES): N#Cc1cccc(-c2cncnc2NCc2cccs2)c1
- AC50 [1]: 0.501 µM (inconclusive)
- AC50 [10]: 31.6 µM (inconclusive)

Structure (SMILES): CC1CCN(CCCn2c(=S)[nH]c3ccc(N4CCOCC4)cc3c2=O)CC1
- AC50 [1]: 20 µM (inconclusive)
- AC50 [2]: inconclusive
- AC50 [10]: 22.4 µM (inconclusive)

Structure (SMILES): Cc1nc2cnc(Oc3cccc(Cl)c3)nc2n(Cc2ccc(F)cc2)c1=O
- AC50 ([2]; read-out: AC50): 31.6 µM (inconclusive)

Structure (SMILES): O=C(O)c1ccc([N+](=O)[O-])c2c1C(=O)c1ccccc1C2=O
- EC50 [4]: 6.78 µM (active)
- AC50 [5]: 29 µM (active)
